Results as given in patent US10745452B2, “Combination of antimicrobial peptides and antibiotic drugs for treating diseases” (OMNIX MEDICAL LTD., priority 2016, dated 2020).
Entries after “also recorded” stand apart in the source; their conditions may differ. Read-outs that look alike come from different tables or passages of the source. Ends that are not written are not given here. Peptide text beside a SMILES is read from it.

Experiments:
Format in all cases: cell-based
[1] = tested on: Salmonella serotype Typhimurium (ATCC 700408); experiment: microbe, parasite or virus in culture; conditions: for bacterial growth (OD600), combination: simultaneously; for bacterial growth (OD600), combination / bacterial growth (OD600), stand-alone treatment: 17-20 h; for MIC: Salmonella
[2] = tested on: Pseudomonas aeruginosa (ATCC BAA-2110); experiment: Growth of MDR bacteria monitored by OD600 under peptide, antibiotic or co-treatment; conditions: FIG. 3B; for bacterial growth (OD600), combination: OMN6 32 μg/ml together with AMP 64 μg/ml, simultaneously; for bacterial growth (OD600), combination / bacterial growth (OD600), stand-alone treatment: 17-20 h
Protocol: FIG. 3B presents: Pseudomonas aeruginosa (ATCC BAA-2110), a Multi-Drug Resistant (MDR) strain of bacteria were cultured in the presence of either OMN6 or AMP. The bacteria were introduced into solutions of OMN6 (32 μg/ml) and AMP (64 μg/ml) at concentrations that were previously shown to be non-effective when added alone. […] The bacteria were then cultured in the presence of a co-treatment with a combination of OMN6 and AMP, and administered simultaneously, in the same non-effective concentrations described above.
(§1) The bacteria were incubated for 17-20 hours and the growth of the bacteria was continuously monitored via spectrophotometry at 600 nm (OD600). As bacterial growth progresses, OD600 values rise, and where the growth is inhibited OD600 values remain constant.

[3] = tested on: Salmonella serotype Typhimurium (ATCC 700408); experiment: microbe, parasite or virus in culture; conditions: for bacterial growth (OD600), combination: simultaneously; for bacterial growth (OD600), combination / bacterial growth (OD600), stand-alone treatment: 17-20 h; for MIC: Salmonella; remark: listed apart in the source
Protocol: FIG. 1 presents: Salmonella serotype Typhimurium (ATCC 700408), a Multi-Drug Resistant (MDR) strain of bacteria were cultured in the presence of either OMN6 or Kanamycin KAN. […] The bacteria were incubated for 17-20 hours and the growth of the bacteria was continuously monitored via spectrophotometry at 600 nm (OD600). As bacterial growth progresses, OD600 values rise, and where the growth is inhibited OD600 values remain constant.
as §1
FIG. 3A presents: Salmonella serotype Typhimurium (ATCC 700408), a Multi-Drug Resistant (MDR) strain of bacteria were cultured in the presence of OMN6 or AMP.

[4] = tested on: Pseudomonas aeruginosa (ATCC BAA-2110); experiment: Growth of MDR bacteria monitored by OD600 under peptide, antibiotic or co-treatment; conditions: AMP alone 128 μg/ml; 17-20 h; FIG. 3B
[5] = OMN6 32 μg/ml together with AMP 128 μg/ml, FIG. 3A

CC[C@H](C)[C@H](NC(=O)CNC(=O)[C@H](CCC(=O)O)NC(=O)[C@H](CO)NC(=O)[C@@H](NC(=O)[C@H](CCCNC(=N)N)NC(=O)[C@H](CCCCN)NC(=O)[C@H](CCCCN)NC(=O)[C@H](C)NC(=O)[C@H](CO)NC(=O)[C@H](CC(N)=O)NC(=O)[C@H](CCC(=O)O)NC(=O)[C@H](CC(C)C)NC(=O)[C@H](CCCCN)NC(=O)[C@H](CCCCN)NC(=O)[C@H](C)NC(=O)[C@@H](NC(=O)[C@H](CCCCN)NC(=O)[C@H](CO)NC(=O)[C@H](CC(C)C)NC(=O)[C@H](Cc1c[nH]c2ccccc12)NC(=O)[C@H](CO)NC(=O)[C@H](CS)NC(=O)[C@@H](N)CCSC)[C@@H](C)O)[C@@H](C)CC)C(=O)N[C@@H](C)C(=O)N[C@H](C(=O)N[C@@H](C)C(=O)N[C@H](C(=O)N[C@@H](CCC(N)=O)C(=O)NCC(=O)NCC(=O)N1CCC[C@H]1C(=O)N[C@@H](CCCNC(=N)N)C(=O)N[C@@H](CS)C(=O)O)[C@@H](C)CC)[C@@H](C)CC [OMN11] (H-MCSWLSKTAKKLENSAKKRISEGIAIAIQGGPRC-OH; N-terminus and C-terminus assumed)
bacterial growth (OD600), combination ([1]; OMN11 304 μg/ml together with IPM 32 μg/ml, FIG. 2): complete and long-lasting antimicrobial effect; also recorded: powerful antimicrobial effect
bacterial growth (OD600), stand-alone treatment ([1]; OMN11 alone 304 μg/ml, FIG. 2): did not inhibit bacterial growth and did not lead to bacterial death; also recorded: did not inhibit bacterial growth effectively

OMN6: modified H. cecropia Cecropin A peptide, MCKWKLFKKIEKVGQNIRDGIIKAGPAVAVVGQATQIAKC (ends and bridges not checked; cysteine pairing not given here)
bacterial growth (OD600), combination [2]: complete and long-lasting antimicrobial effect; also recorded: powerful antimicrobial effect
bacterial growth (OD600), stand-alone treatment ([2]; OMN6 alone 32 μg/ml): did not inhibit bacterial growth and did not lead to bacterial death; also recorded: did not inhibit bacterial growth effectively
Minimal Inhibitory Concentration (MIC) of co-treatment, OMN6 part ([2]; in co-treatment with AMP 64 μg/ml): 32 µg/mL
bacterial growth (OD600), combination ([1]; OMN6 32 μg/ml together with TET 16 μg/ml, FIG. 4): complete and long-lasting antimicrobial effect; also recorded: powerful antimicrobial effect
bacterial growth (OD600), stand-alone treatment ([1]; OMN6 alone 217 μg/ml, FIG. 1): did not inhibit bacterial growth and did not lead to bacterial death; also recorded: did not inhibit bacterial growth effectively
bacterial growth (OD600), combination [3, 5]: complete and long-lasting antimicrobial effect; also recorded: powerful antimicrobial effect
bacterial growth (OD600), combination ([3]; OMN6 217 μg/ml together with KAN 3.75 μg/ml, FIG. 1): complete and long-lasting antimicrobial effect; also recorded: powerful antimicrobial effect
bacterial growth (OD600), stand-alone treatment ([3]; OMN6 alone 32 μg/ml, FIG. 3A): did not inhibit bacterial growth and did not lead to bacterial death; also recorded: did not inhibit bacterial growth effectively
bacterial growth (OD600), stand-alone treatment ([3]; OMN6 alone 32 μg/ml, FIG. 4): did not inhibit bacterial growth and did not lead to bacterial death; also recorded: did not inhibit bacterial growth effectively
Minimal Inhibitory Concentration (MIC) of co-treatment, OMN6 part ([3]; in co-treatment with AMP 128 μg/ml, FIG. 3A): 32 µg/mL
Minimal Inhibitory Concentration (MIC) of co-treatment, OMN6 part ([3]; in co-treatment with KAN 3.75 μg/ml, FIG. 1): 217 µg/mL

NC[C@H]1O[C@H](O[C@H]2[C@H](O)[C@@H](O[C@H]3O[C@H](CO)[C@@H](O)[C@H](N)[C@H]3O)[C@H](N)C[C@@H]2N)[C@H](O)[C@@H](O)[C@@H]1O [KAN, Kanamycin, reference compound]
MIC ([3]; in co-treatment with OMN6 217 μg/ml, FIG. 1, read-out: Minimal Inhibitory Concentration (MIC) of co-treatment, KAN part): 3.75 µg/mL

CC1(C)S[C@@H]2[C@H](NC(=O)[C@H](N)c3ccccc3)C(=O)N2[C@H]1C(=O)O [AMP, Ampicillin, reference compound]
bacterial growth (OD600), stand-alone treatment ([2]; AMP alone 64 μg/ml): did not inhibit bacterial growth and did not lead to bacterial death
bacterial growth (OD600), combination [2]: complete and long-lasting antimicrobial effect; also recorded: powerful antimicrobial effect
MIC ([2]; Pseudomonas aeruginosa, ATCCBAA2110, in co-treatment with OMN6 32 μg/ml, read-out: Minimal Inhibitory Concentration (MIC) of co-treatment, AMP part): 64 µg/mL
bacterial growth (OD600), stand-alone treatment [4]: did not inhibit bacterial growth effectively
bacterial growth (OD600), stand-alone treatment ([3]; AMP alone 128 μg/ml, FIG. 3A): did not inhibit bacterial growth and did not lead to bacterial death; also recorded: did not inhibit bacterial growth effectively
bacterial growth (OD600), combination [3, 5]: complete and long-lasting antimicrobial effect; also recorded: powerful antimicrobial effect
MIC ([3]; read-out: Minimal Inhibitory Concentration (MIC) of co-treatment, AMP part): 128 µg/mL

C[C@@H](O)[C@H]1C(=O)N2C(C(=O)O)=C(SCCN=CN)C[C@H]12 [IPM, Imipenem, reference compound]
MIC ([1]; read-out: Minimal Inhibitory Concentration (MIC) of co-treatment, IPM part): 32 µg/mL

CN(C)[C@@H]1C(O)=C(C(N)=O)C(=O)[C@@]2(O)C(O)=C3C(=O)c4c(O)cccc4[C@@](C)(O)[C@H]3C[C@@H]12 [TET, Tetracycline, reference compound]
MIC ([1]; in co-treatment with OMN6 32 μg/ml, FIG. 4, read-out: Minimal Inhibitory Concentration (MIC) of co-treatment, TET part): 162 µg/mL
